The text below walks through data of patent US20130165508A1, “METHODS AND FORMULATIONS FOR TREATING INEFFECTIVE OR DECREASED ESOPHAGAL MOTILITY” (priority 2007, published 2013).

Series [1] is described as follows: Gastrointestinal absorption of oral bethanechol. The class given is in vivo. The settings on record: 50 mg oral dosage at about 22 percent absorption. The method, then: Thus, to achieve the beneficial effects of bethanechol on esophageal motility, systemic dosages in the range of 25-50 mg are required. Further, absorption of bethanechol at these dosage levels by the stomach and lower GI tract results in systemic distribution to other areas of the body such as the urinary tract and colon. A 50 mg oral dosage, for example, is believed to be about 22 percent absorbed in the stomach and intestines, which are rich in blood supply. This would result in a systemic level of about 11 mg of bethanechol. As described herein, however, bethanechol delivered locally to the pharynx and esophagus in a form that can more easily be absorbed by the mucosal lining of the pharynx and esophagus and delivered to the muscarinic receptors, principally the M2 receptors, can provide esophageal motility benefits, as well as increased salivation, while minimizing or avoiding systemic absorption and reducing or eliminating undesirable side effects. Enhancing the reduction or elimination of undesirable side effects is the fact that the esophagus has low vascularization, thus inhibiting the systemic absorption of bethanechol.

Series [2] can be described thus: Expected absorption of bethanechol from ten 0.1 ml sprays with absorption enhancer. The class given is in vivo. From the text:
An exemplary method comprises treating ineffective esophageal motility while reducing or virtually eliminating an undesirable side effect, particularly a parasympathetic nervous system side effect, in a mammal in need of treatment by topically administering to the pharynx and esophagus of the mammal a therapeutically effective amount of bethanechol and an absorption enhancer to facilitate esophageal peristalsis so that the undesirable side effect, particularly the parasympathetic nervous system side effect, is reduced while maintaining the therapeutic esophageal peristaltic effect. A further exemplary method comprises delivering an amount of bethanechol of between about 3 mg and about 15 mg. A further exemplary method comprises introducing about ten 0.1 ml sprays comprising 5 mg bethanechol per ml and an absorption enhancer. Of the total 5 mg introduced, it is expected about 25 percent of the bethanechol, or about 1.25 mg, is adsorbed. The remaining 3.75 mg would proceed into the stomach and intestines, and, at about a 22 percent absorption rate would result in only about 0.8 mg bethanechol being systemically adsorbed, far below the threshold necessary to produce undesirable side effects.

For series [3], the system named is patients with severe ineffective esophageal motility. The settings on record: 50 mg oral doses, after 15 and 40 minutes; cited from earlier work.
For series [4] the following is noted: cited from earlier work.
For a further series, the target named is T1, muscarinic M2 receptors (Homo sapiens, UniProt P08172).
T1 sequence (P08172 1-466): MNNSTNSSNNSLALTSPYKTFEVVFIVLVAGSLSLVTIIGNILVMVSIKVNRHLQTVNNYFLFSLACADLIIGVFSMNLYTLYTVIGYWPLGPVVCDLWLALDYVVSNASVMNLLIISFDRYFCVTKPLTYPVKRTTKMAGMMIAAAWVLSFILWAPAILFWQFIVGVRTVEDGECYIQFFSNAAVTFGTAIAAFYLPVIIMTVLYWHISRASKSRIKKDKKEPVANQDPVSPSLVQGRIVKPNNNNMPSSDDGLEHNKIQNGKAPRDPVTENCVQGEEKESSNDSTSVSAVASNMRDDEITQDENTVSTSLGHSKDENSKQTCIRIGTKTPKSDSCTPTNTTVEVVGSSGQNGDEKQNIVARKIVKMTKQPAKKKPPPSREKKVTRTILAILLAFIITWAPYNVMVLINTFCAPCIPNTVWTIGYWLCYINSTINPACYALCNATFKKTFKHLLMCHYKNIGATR
The settings on record: cited from earlier work.

A further series concerns the target acetylcholinesterase (Homo sapiens, UniProt P22303). The settings on record: cited from earlier work.
For series [5] the following is noted: cited from earlier work. The source holds these as a separate data set.
For series [6] the following is noted: systemic dosing; cited from earlier work.

Molecules are shown by their SMILES.

Sequence of acetylcholinesterase (P22303 32-614, species assumed): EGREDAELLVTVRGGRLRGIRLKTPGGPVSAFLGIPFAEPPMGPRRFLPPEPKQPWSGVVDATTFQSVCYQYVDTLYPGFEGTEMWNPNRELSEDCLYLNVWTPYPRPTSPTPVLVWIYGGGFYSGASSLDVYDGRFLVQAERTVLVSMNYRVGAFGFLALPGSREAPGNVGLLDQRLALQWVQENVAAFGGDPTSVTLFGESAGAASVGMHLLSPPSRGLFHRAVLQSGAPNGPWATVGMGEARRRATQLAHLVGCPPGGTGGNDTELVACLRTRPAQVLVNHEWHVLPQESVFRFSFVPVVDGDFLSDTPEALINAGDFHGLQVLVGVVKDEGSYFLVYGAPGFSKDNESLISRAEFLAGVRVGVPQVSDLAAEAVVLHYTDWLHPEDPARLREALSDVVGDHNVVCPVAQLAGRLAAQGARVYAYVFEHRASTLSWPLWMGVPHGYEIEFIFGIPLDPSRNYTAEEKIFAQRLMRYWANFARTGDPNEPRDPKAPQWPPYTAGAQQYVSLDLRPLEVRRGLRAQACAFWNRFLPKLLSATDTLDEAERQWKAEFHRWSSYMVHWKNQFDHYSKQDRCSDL

`CC(C[N+](C)(C)C)OC(N)=O` (centres unmarked) [bethanechol, 2-carbamoyloxpropyl-trimethyl-ammonium chloride]: the “systemic level of bethanechol” value in series [1] is “about 11 mg”. Moreover, the “bethanechol systemically adsorbed from the remaining 3.75 mg” value in series [2] (remaining 3.75 mg in stomach and intestines at about 22 percent absorption rate) is reported as “about 0.8 mg”. Moreover, in series [2] (ten 0.1 ml sprays, 5 mg bethanechol per ml with absorption enhancer, total 5 mg), the “fraction of bethanechol adsorbed from the spray” value was “about 25%”. For the same compound, in series [2] (ten 0.1 ml sprays, total 5 mg), the “amount of bethanechol adsorbed from the spray” value is recorded as “about 1.25 mg”. For the same compound, in series [3], the “effect on esophageal motility” value is “improve esophageal motility”. Also, the “fraction absorbed in the stomach and intestines” value in series [4] (50 mg oral dosage, "is believed") was “about 22%”. Besides, the “absorption by the mucosal lining of the gastrointestinal tract” value in series [4] (in vivo) is “poorly absorbed”. Moreover, the receptor selectivity entry at muscarinic M2 receptors was “directly and selectively on the muscarinic M2 receptors”. Moreover, the inactivation by acetylcholinesterase result at acetylcholinesterase was “not inactivated by acetylcholinesterase”. Moreover, the “stability and water solubility” value in series [5] is “stable, water-soluble”. The “undesirable side effects when provided systemically” value in series [6] is “diarrhea, flushing, increased sweating, nausea, stomach pain, or gas, and, importantly, urinary urgency”.
